The results in this text go back to patent US12458631B2, “Use of dihydroberberine or its derivatives for anti-glycation” (NANJING NUTRABUILDING BIO-TECH CO., LTD., priority 2022, dated 2025).

What all share (type): in vivo, Kunming mice
One assay concerns SOD. As to the kind of experiment: SOD activity in skin of D-galactose-injected mice. The conditions noted are these: 14th week. As for the experimental part: (§1) Six-week-old, male, Kunming mice, weighed about 30±2 g, were obtained from Cavens Lab Animal (Changzhou, China) and housed in a controlled room (25±2° C., 60% relative humidity, 12 h light/dark cycle) with free access to water and standard laboratory diet. After an acclimation period (1 week), mice were randomly divided into 3 groups of 9 animals. Choose the mice's back skin as the experimental observation area, use a razor to shave off the back hair of the mice. Apply 5% sodium sulfide solution to the back of the mice to remove the hair. Then all mice were injected subcutaneously with the same volume of D-galactose (1000 mg/kg), once a day for 8 weeks. During the entire process of the experiment, the daily food intake and weight of mice were recorded every day, and the D-galactose injection dose was adjusted following the weight change. The 3 groups of 9 animals were (1) non-supplement group (Con, Group 1); (2) DHB supplement group (DHB, 100 mg/kg, Group 2); (3) DHB supplement group (DHB, 200 mg/kg, Group 3). […] The levels of H2O2, MDA, SOD, CAT, GSH, and GSH-Px in the skin were detected with relative kits as reference. […] Quantitative polymerase chain reaction (QPCR) and western blot methods were used to measure the expression of MMP-1 in the skin.

For assay [1], the system named is skin epidermis and dermis. In words: H&E staining, quantitation of skin epidermis and dermis in D-galactose-injected mice. The conditions noted are these: 14th week. As to the method: Six-week-old, male, Kunming mice, weighed about 30±2 g, were obtained from Cavens Lab Animal (Changzhou, China) and housed in a controlled room (25±2° C., 60% relative humidity, 12 h light/dark cycle) with free access to water and standard laboratory diet. After an acclimation period (1 week), mice were randomly divided into 3 groups of 9 animals. Choose the mice's back skin as the experimental observation area, use a razor to shave off the back hair of the mice. Apply 5% sodium sulfide solution to the back of the mice to remove the hair. Then all mice were injected subcutaneously with the same volume of D-galactose (1000 mg/kg), once a day for 8 weeks. During the entire process of the experiment, the daily food intake and weight of mice were recorded every day, and the D-galactose injection dose was adjusted following the weight change. The 3 groups of 9 animals were (1) non-supplement group (Con, Group 1); (2) DHB supplement group (DHB, 100 mg/kg, Group 2); (3) DHB supplement group (DHB, 200 mg/kg, Group 3). Mice in group 2 and group 3 were injected subcutaneously (s.c.) into their back skins with the corresponding concentrations of DHB before each major meal once daily for 6 weeks. All mice were sacrificed following 6 weeks at the end of the experiment. The skin tissue was divided into three parts, the first part was stored at −80° C. until assays were performed, the second part was immediately collected, weighed and homogenized (4° C.; 3500 rpm for 15 min) for biochemical and histological analyses, and the third part was fixed in 10% formalin until further use. Hematoxylin-eosin staining (H&E) and Masson staining were performed on skin samples. Skins were fixed in 10% formalin 48 h at room temperature and paraffin-embedded afterward. With H&E staining, skins were sliced into 4 μm, dehydrated of gradient ethanol, and stained with hematoxylin and eosin. For Masson staining, sliced skins were stained with a Masson kit as the instruction said. H&E staining to observe the skin epidermis and dermis structure change and analyze stained collagen fibers by Image-Pro Plus 6.0 in the perspective of 400 times to detect the percentage of collagen fibers area. To further examine the content of skin collagen fibers, this was determined by Masson's staining. Then quantitation of skin epidermis and dermis, and collagen were calculated based on the results of observation.

A further assay deals with skin collagen fibers. As to the kind of experiment: Masson staining, quantification of skin collagen fibers in D-galactose-injected mice. The settings on record: 14th week. As to the method:
Six-week-old, male, Kunming mice, weighed about 30±2 g, were obtained from Cavens Lab Animal (Changzhou, China) and housed in a controlled room (25±2° C., 60% relative humidity, 12 h light/dark cycle) with free access to water and standard laboratory diet. After an acclimation period (1 week), mice were randomly divided into 3 groups of 9 animals. Choose the mice's back skin as the experimental observation area, use a razor to shave off the back hair of the mice. Apply 5% sodium sulfide solution to the back of the mice to remove the hair. Then all mice were injected subcutaneously with the same volume of D-galactose (1000 mg/kg), once a day for 8 weeks. During the entire process of the experiment, the daily food intake and weight of mice were recorded every day, and the D-galactose injection dose was adjusted following the weight change. The 3 groups of 9 animals were (1) non-supplement group (Con, Group 1); (2) DHB supplement group (DHB, 100 mg/kg, Group 2); (3) DHB supplement group (DHB, 200 mg/kg, Group 3). […] To further examine the content of skin collagen fibers, this was determined by Masson's staining. Then quantitation of skin epidermis and dermis, and collagen were calculated based on the results of observation.

The test system of a further assay is H2O2. In words: H2O2 content in skin homogenate of D-galactose-injected mice. The conditions noted are these: 14th week. As to the method: as §1
Another assay has as its system MMP-1. As to the kind of experiment: MMP-1 expression in skin (QPCR and western blot) of D-galactose-injected mice. The conditions noted are these: 14th week. As for the experimental part: as §1
The next assay has as its system GSH. As to the kind of experiment: GSH activity in skin of D-galactose-injected mice. The settings on record: DHB groups (100 and 200 mg/kg s.c.), 14th week. As for the experimental part: as §1
The next assay relates to GSH-Px. In words: GSH-Px activity in skin of D-galactose-injected mice. The settings on record: 14th week. As for the experimental part: as §1
The test system of a further assay is CAT. As to the kind of experiment: CAT activity in skin of D-galactose-injected mice. The settings on record: DHB groups (100 and 200 mg/kg s.c.), 14th week. As to the method:
as §1

The nature of assay [2]: Fasting blood glucose level by glucometer in D-galactose-injected mice. The settings on record: for blood glucose level decreased compared to the non-supplement group: 14th week. As to the method: Six-week-old, male, Kunming mice, weighed about 30±2 g, were obtained from Cavens Lab Animal (Changzhou, China) and housed in a controlled room (25±2° C., 60% relative humidity, 12 h light/dark cycle) with free access to water and standard laboratory diet. After an acclimation period (1 week), mice were randomly divided into 3 groups of 9 animals. Choose the mice's back skin as the experimental observation area, use a razor to shave off the back hair of the mice. Apply 5% sodium sulfide solution to the back of the mice to remove the hair. Then all mice were injected subcutaneously with the same volume of D-galactose (1000 mg/kg), once a day for 8 weeks. During the entire process of the experiment, the daily food intake and weight of mice were recorded every day, and the D-galactose injection dose was adjusted following the weight change. The 3 groups of 9 animals were (1) non-supplement group (Con, Group 1); (2) DHB supplement group (DHB, 100 mg/kg, Group 2); (3) DHB supplement group (DHB, 200 mg/kg, Group 3). Mice in group 2 and group 3 were injected subcutaneously (s.c.) into their back skins with the corresponding concentrations of DHB before each major meal once daily for 6 weeks. When all mice were on fasting, collect approximately 10 μL of blood by the tail nick for 3 times, at the beginning of the trial (0 week), after the D-galactose injection (8th week), and at the end of the trial (14th week). Use the glucometer to measure the glucose level.

A further assay relates to MDA. As to the kind of experiment: MDA content in skin of D-galactose-injected mice (kit/ELISA). The conditions noted are these: group 3, DHB 200 mg/kg s.c., 14th week. As to the method:
as §1
For orientation: An ELISA detects its analyte on a solid surface through an enzyme-linked reagent.

Setting [3] is: DHB groups (100 and 200 mg/kg s.c.).
The mark [4] stands for this setting: DHB supplemented groups (100 and 200 mg/kg s.c.).

Consider `COc1ccc2c(c1OC)CN1CCc3cc4c(cc3C1=C2)OCO4` [DHB, Dihydroberberine], for which the “SOD activity after DHB supplementation” value in the assay with SOD (setting [3]) is listed as “significantly improved”. Moreover, the “SOD increase compared to non-supplementation group” value with SOD (group 3, DHB 200 mg/kg s.c.) was “about 2.9 times”. Moreover, the “dermal thickness vs control group” value in assay [1] (setting [4]) was “significant thicker”. In addition, in [1] (setting [4]), the “epidermal thickness vs control group” value is recorded as “significant thicker”. In addition, the “prevention or reduction of dermal thickness decrease” value in assay [1] (group 3, DHB 200 mg/kg s.c.) came out at 78%. Besides, the “prevention or reduction of epidermal thickness decrease” value in assay [1] (group 3, DHB 200 mg/kg s.c.) was 72%. For the same molecule, in the assay on skin collagen fibers (DHB supplement groups (100 and 200 mg/kg s.c.)), the “contents of collagen in the skin tissue compared with the control group” value is recorded as “significantly higher”. Further, the “content of collagen in the skin tissue, higher than control group” value in the assay with skin collagen fibers (higher dose group, DHB 200 mg/kg s.c.) stood at 2.2 times. In addition, the “H2O2 content decreased compared to the non-supplement group” value in the assay on H2O2 (group 2, DHB 100 mg/kg s.c.) is recorded as “about 33%”; with H2O2 (group 3, DHB 200 mg/kg s.c.) it was approximately 58%. Moreover, the “MMP-1 expression reduced compared to non-supplement group” value with MMP-1 (group 2, DHB 100 mg/kg s.c.) is given as “about 23%”; in the assay with MMP-1 (group 3, DHB 200 mg/kg s.c.), “about 51%”. Moreover, the “GSH activity after DHB supplementation” value in the assay with GSH was “significantly improved”. In addition, in the assay on GSH-Px (setting [3]), the “GSH-Px activity after DHB supplementation” value was “significantly improved”. Moreover, the “GASH-Px increase compared to non-supplementation group” value with GSH-Px (group 3, DHB 200 mg/kg s.c.) was approximately 1.8 times. Also, the “CAT activity after DHB supplementation” value in the assay on CAT is recorded as “significantly improved”. In [2] (setting [3]), the “blood glucose levels after supplementation” value is “decreased significantly”. The “blood glucose level decreased compared to the non-supplement group” value is reported as “about 39%” in [2] (group 2, DHB 100 mg/kg s.c. once daily for 6 weeks) and approximately 44% in assay [2] (group 3, DHB 200 mg/kg s.c. once daily for 6 weeks). The “content of MDA lower than in the control group” value in the assay with MDA worked out at 63%.
